Patent US20260325464A1, “COMPOSITIONS FOR MODULATING THE EXPRESSION OF AQUAPORINS IN NEURODEGENERATIVE DISORDERS” (priority 2023, published 2026)

Assays:
Format in all cases: in vivo, rat
[1] = tested on: Alzheimer's disease; experiment: Novel object recognition (NOR) test in rats with AlCl3-induced Alzheimer's disease; conditions: for % Recognition Index: p.o. + AlCl3 (100 mg/kg, i.p.), NOR at 15th day, Mean ± SEM, n = 6
Description: Novel object recognition (NOR)—Novel object recognition (NOR)—This test was performed as per reported protocol (Antunes M, Biala G. The novel object recognition memory: neurobiology, test procedure, and its modifications. Cognit. Process. 2012:13, 93-110). During the retrieval phase, the animal was allowed to explore the field for 10 min. The hippocampal functions were assessed through the recognition indices, which were measured according to the time spent by the animals to explore the familiar and new objects.
The test is a relatively fast and efficient means for testing learning and memory in an animal model. The test relies on only three sessions: one habituation session, one training session, and one test session and relies on rodents' natural proclivity for exploring novelty. This is a relatively low-stress, efficient test for memory in an animal model, and is appropriate for the detection of neuropsychological changes after the administration of test drugs (Lupetow L, Novel Object Recognition Test for the Investigation of Learning and Memory in Mice, J Vis Exp. 2017; (126): 55718).

[2] = tested on: β-amyloid (1-42); experiment: β-amyloid (1-42) level in plasma (ELISA), AlCl3 Alzheimer's model; conditions: for β-amyloid: p.o. + AlCl3 (100 mg/kg, i.p.), plasma, Mean ± SEM, n = 6
Text: (§1) The levels of Tau, β-amyloid (1-42) and Apolipoprotein E were estimated. using ELISA kit (Krishgen Biosystems, India). All the protein biomarkers of AD were elevated in the AD control group.

[3] = tested on: Tau; experiment: Tau level in plasma (ELISA), AlCl3 Alzheimer's model; conditions: 5, 10 and 20 mg/kg, FIG. 2
Text: as §1

[4] = tested on: Apolipoprotein E; experiment: Apolipoprotein E level in plasma (ELISA), AlCl3 Alzheimer's model; conditions: for Apolipoprotein E: p.o. + AlCl3 (100 mg/kg, i.p.), plasma, Mean ± SEM, n = 6
Text: as §1

[5] = tested on: Parkinson's disease; experiment: Open field test in rats with reserpine-induced Parkinson's disease; conditions: for Freezing / Number of central explorations / Number of squares crossed: p.o. + Reserpine (4 mg/kg, s.c.), open field, Mean ± SEM, n = 6
Text: (§2) The induction of Parkinson's disease and measurement of other parameters were done as per the reported protocol (Santos et al., Cognitive, motor and tyrosine hydroxylase temporal impairment in a model of parkinsonism induced by reserpine. Behav Brain Res. 2013; 253:68-77 and Shishehbore et al. A novel kinetic spectrophotometric method for the determination of dopamine in biological and pharmaceutical samples. J Chem. 2013; 2013:1-6). Induction of Parkinson's disease was done by administering Resperine, which inhibits the monoamine vesicular transporters, thus decreasing the levels of monoamine neurotransmitters in the brain. Following pretreatment for 14 days with Gingerenone A, the rat groups received subcutaneous injections of reserpine (4 mg/kg) for the final five days of the treatment regimen. Resperine (5 mg) was dissolved in 1 ml of 1% acetic acid and then diluted tenfold with distilled water to achieve a final concentration of 500 μg/ml. The normal control group received saline with 1% acetic acid […], administered from day 10 to day 14. Thirty minutes following the administration of reserpine on the 14th day, behavioural assessments were conducted using the Open Field test, Y Maze, and Catalepsy tests to evaluate changes. Rats administered with Carbidopa, a known drug for the management of Parkinson's disease was also used for comparison. Upon completion of the study, brains were harvested for biochemical analyses and histopathological studies. The experimental group is depicted in table 10.
Open filed test—The test was conducted as per protocol described by Saleem et al., Pharmacological Potential of the Standardized Methanolic Extract of Prunus armeniaca L. in the Haloperidol-Induced Parkinsonism Rat Model. Evid Based Complement Alternat Med. 2022:29; 3697522. doi: 10.1155/2022/3697522. This test was conducted to assess the locomotor and exploratory behaviors of the experimental rats. A square-shaped wooden box measuring 100 cm in width, 100 cm in […], and 45 cm in height was constructed using plywood material, painted white, with a black-lined floor divided into 25 blocks. The rats were placed in the center of the field for a duration of 5 minutes and allowed to explore the box freely. The number of squares crossed, both centrally and horizontally, along with the total number of crossings, instances of defecation, freezing behavior, and postures were recorded during this period. Normal animals readily and quickly acclimate to the chamber and try to explore the center area of the squares.

[6] = tested on: Parkinson's disease; experiment: Y-maze test in rats with reserpine-induced Parkinson's disease; conditions: for No of arm entries / Spontaneous alterations (%): p.o. + Reserpine (4 mg/kg, s.c.), Y maze, Mean ± SEM, n = 6
Text: as §2
Y-maze test—In the Y-maze test, spontaneous alterations serve as an indicator of working short-term memory.
The maze consisted of a triangular central area with three equilateral arms labeled A, B, and C, each measuring 35 cm in length, 25 cm in height, and 10 cm in width. During the test, each rat was placed in the central area, facing one of the arms. An entry was scored when all four paws of the rat entered an arm. Spontaneous alterations in behavior were defined as consecutive entries into different arms (e.g., ABC, BCA, or CAB, but not CAC). The maximum number of spontaneous alterations ([…]) and the percentage of spontaneous alterations (actual number of alterations divided by the maximum alterations, multiplied by 100) were calculated for each rat (Kraeuter et al., The Y-Maze for Assessment of Spatial Working and Reference Memory in Mice. Methods Mol Biol. 2019; 1916:105-111).

[7] = tested on: Aquaporin 9 (AQP9); experiment: AQP9 expression, reserpine Parkinson's model; conditions: 5, 10 and 20 mg/kg, FIG. 9
Text: as §2, with “Upon completion of the study, brains were harvested for biochemical analyses and histopathological studies. The experimental group is depicted in table 10.” left out

## COc1cc(CC/C=C/C(=O)CCc2ccc(O)c(OC)c2)ccc1O [Gingerenone A]
[1]; 5 mg/kg
  % Recognition Index: 56.23 ± 2.35%
[1]; 10 mg/kg
  % Recognition Index: 65.54 ± 2.78 %
[1]; 20 mg/kg
  % Recognition Index: 66.53 ± 3.20 %
[1]; AlCl3 model, Table 2
  recognition index (in words): effectively improved the scores
[2]; 5 mg/kg
  β-amyloid: 10.74 ± 0.035 pg/mL
[2]; 10 mg/kg
  β-amyloid: 8.04 ± 0.023 pg/mL
[2]; 20 mg/kg
  β-amyloid: 7.88 ± 0.065 pg/mL
[2]; AlCl3 model, Table 7
  levels of β-amyloid (in words): significantly reduced
[3]
  Tau levels in plasma (in words): significantly reduced
[4]; 5 mg/kg
  Apolipoprotein E: 7.47 ± 0.054 ng/mL
[4]; 10 mg/kg
  Apolipoprotein E: 7.08 ± 0.076 ng/mL
[4]; 20 mg/kg
  Apolipoprotein E: 6.84 ± 0.034 ng/mL
[4]; AlCl3 model, Table 8
  levels of Apolipoprotein E (in words): significantly reduced
[5]; 5 mg/kg
  Freezing: 15.29 ± 0.35 s
  Number of central explorations: 12.57 ± 1.05
  Number of squares crossed: 21.62 ± 2.47
[5]; 10 mg/kg
  Freezing: 10.38 ± 0.62 s
  Number of central explorations: 17.34 ± 1.20
  Number of squares crossed: 27.45 ± 2.06
[5]; 20 mg/kg
  Freezing: 9.02 ± 0.45 s
  Number of central explorations: 17.27 ± 0.98
  Number of squares crossed: 26.26 ± 2.27
[5]; reserpine model, Table 11
  locomotory and exploratory behaviors (in words): significantly improved the behavior
[6]; 5 mg/kg
  No of arm entries: 9.37 ± 0.29
  Spontaneous alterations (%): 21.43 ± 1.08 %
[6]; 10 mg/kg
  No of arm entries: 11.57 ± 0.92
  Spontaneous alterations (%): 26.87 ± 1.05 %
[6]; 20 mg/kg
  No of arm entries: 12.09 ± 1.39
  Spontaneous alterations (%): 26.21 ± 0.98 %
[6]; reserpine model, Table 12
  working memory in Y-maze (in words): significantly increase the working memory with increase in entries in the different arms with more number of alterations
[7]
  AQP9 expression (in words): inhibited AQP9 expression
